Measurements published in paper PMC10269165 (Antimicrobial Agents and Chemotherapy, 2023).
Like-named read-outs stand apart in the source and are kept apart here.

Experiments:
[1] = test system: TcPMT-complemented pem1Δ/pem2Δ S. cerevisiae; assay: Growth inhibition of complemented yeast; type: cell-based, Saccharomyces cerevisiae; conditions: read-out: Mean growth inhibition EC50 ± SEM on complemented yeast, TcPMT
Experimental: (§1) To determine the effect of PMT inhibitors on the growth of PMT- and LacZ-complemented pem1Δpem2Δ S. cerevisiae, the yeast cells were first starved of choline as described above, and the cells were diluted to an OD600 of ~0.6. The PMT-complemented yeast cells were cultured in SG medium (3.4g/L yeast nitrogen base without amino acids, 2% galactose, 30 mg/L histidine, 100 mg/L leucine, 100 mg/L adenine, and 50 mg/L tryptophan) supplemented with 1 mM ethanolamine hydrochloride, while the LacZ-complemented yeast cells were cultured in SG medium supplemented with 1 mM choline chloride. Compounds that depicted cross-inhibitory activity against PMT proteins in vitro were added at various concentrations to the cultures. As a negative control, DMSO (at a final concentration not exceeding 2% [vol/vol]) was added to yeast cultures designated control cultures. The cultures were incubated at 30°C with shaking at 275 rpm for 4 days. On a daily basis during the course of culture, 200-μL portions of culture aliquots were taken, and their OD600s were measured using a microplate reader. In preliminary work, we had observed that the growth of PMT- and LacZ-complemented pem1Δpem2Δ S. cerevisiae plateaued at 3 to 4 days of culture. Therefore, to determine the inhibitory effect of nematode PMT inhibitors on the growth of PMT- and LacZ-complemented pem1Δpem2Δ S. cerevisiae, measurements taken on day 3 were used. The results were presented as percentage of growth rate using the following formula: PGR = growth rate (plus inhibitor)/growth rate (minus inhibitor) × 100 where the percent growth rate (PGR) is the growth rate of inhibitor-treated PMT- or LacZ- complemented Pem1Δpem2Δ S. cerevisiae, considering the growth rate of untreated PMT- or LacZ- complemented Pem1Δpem2Δ S. cerevisiae is 100%; the growth rate = ΔA600^Day 3/ΔA600^Day 0; ΔA600^Day 0 is the absolute value of A600 of PMT- or LacZ- complemented pem1Δ/pem2Δ S. cerevisiae at day 0, which equals the A600 of the culture minus the A600 of the growth medium only; ΔA600^Day 3 is the absolute value of the A600 of PMT- or LacZ complemented pem1Δ/pem2Δ S. cerevisiae at day 3, which equals the A600 of the culture at day 3 minus the A600 of growth medium only; the growth rate (plus inhibitor) is the growth rate of PMT- or -LacZ complemented pem1Δpem2Δ S. cerevisiae in the presence of test compound; and the growth rate (minus inhibitor) is the growth rate of the PMT- or LacZ complemented pem1Δ/pem2Δ S. cerevisiae in the absence of test compound, but with a volume of DMSO equal to that of compound added in the treated culture. The dose-response curves were generated with GraphPad Prism software and IC50 concentrations of the compounds in PMT- and LacZ-complemented yeast cells derived.

[2] = test system: DvPMT1+2-complemented pem1Δ/pem2Δ S. cerevisiae; assay: Growth inhibition of complemented yeast; type: cell-based, Saccharomyces cerevisiae; conditions: read-out: Mean growth inhibition EC50 ± SEM on complemented yeast, DvPMT1+2
Experimental: as §1

[3] = test system: HcPMT1+2-complemented pem1Δ/pem2Δ S. cerevisiae; assay: Growth inhibition of complemented yeast; type: cell-based, Saccharomyces cerevisiae; conditions: read-out: Mean growth inhibition EC50 ± SEM on complemented yeast, HcPMT1+2
Experimental: as §1

[4] = test system: AcPMT1+2-complemented pem1Δ/pem2Δ S. cerevisiae; assay: Growth inhibition of complemented yeast; type: cell-based, Saccharomyces cerevisiae; conditions: read-out: Mean growth inhibition EC50 ± SEM on complemented yeast, AcPMT1+2
Experimental: as §1

[5] = test system: OdPMT-complemented pem1Δ/pem2Δ S. cerevisiae; assay: Growth inhibition of complemented yeast; type: cell-based, Saccharomyces cerevisiae; conditions: read-out: Mean growth inhibition EC50 ± SEM on complemented yeast, OdPMT
Experimental: as §1

[6] = test system: LacZ-complemented pem1Δ/pem2Δ S. cerevisiae; assay: Growth inhibition of complemented yeast; type: cell-based, Saccharomyces cerevisiae; conditions: for effect on LacZ-expressing mutant yeast: medium with choline; for EC50: Saccharomyces cerevisiae, 72 h, read-out: Mean growth inhibition EC50 ± SEM on complemented yeast, LacZ
Experimental: as §1

[7] = test system: AsPMT-complemented pem1Δ/pem2Δ S. cerevisiae; assay: Growth inhibition of complemented yeast; type: cell-based, Saccharomyces cerevisiae; conditions: medium with ethanolamine, no choline, day 3, read-out: Mean growth inhibition EC50 ± SEM on complemented yeast, AsPMT
Experimental: as §1

[8] = test system: H. contortus, susceptible (TxPh-2011-S) and MDR (UGA MDR 2020) isolates; assay: Larval development assay (LDA); type: cell-based, Haemonchus contortus; conditions: for Hill slope: LDA dose-response curve; for anthelmintic activity in LDA: drug-susceptible and MDR isolates
[9] = test system: MDR isolate of H. contortus, exsheathed L3 larvae; assay: Larval motility assay (LMA), Worminator; type: cell-based, Haemonchus contortus
[10] = medium with ethanolamine, no choline, day 3

Row | Structure (SMILES) | EC50 [1, 10] | EC50 [2, 10] | EC50 [3, 10] | EC50 [4, 10] | EC50 [5, 10] | effect on LacZ-expressing mutant yeast [6] | EC50 [7] | Hill slope [8] | anthelmintic activity in LDA [8] | Percent inhibition of larval motility ([9]; 62.5 µM, 1 hour) | Percent inhibition of larval motility ([9]; 62.5 µM, 72 hours) | Percent inhibition of larval motility ([9]; 62.5 µM, 96 hours) | Percent inhibition of larval motility ([9]; 62.5 µM, Initial) | Percent inhibition of larval motility ([9]; 250 µM, 4 hours) | Percent inhibition of larval motility ([9]; 250 µM, 72 hours) | fold higher potency than NSC145612 ([8]; LDA IC50) | further results
1 | CO[C@@H]1/C=C\O[C@]2(C)Oc3c(C)c(O)c4c(O)c(c(CN(C)C)c(O)c4c3C2=O)NC(=O)/C(C)=C\C=C[C@@H](C)[C@@H](O)[C@H](C)[C@@H](O)[C@H](C)[C@H](OC(C)=O)[C@@H]1C [NSC145612] | 27.2 ± 7.7 µM | 23 ± 2.15 µM | 8.28 ± 0.99 µM | 29.3 ± 2.54 µM | 32.8 ± 2.64 µM | no or negligible inhibitory effect | 28.9 ± 4.38 µM | 0.79 | activity in the lower micromolar range | 16.7% | 18.3% | 3.8% | 10.1% | 47.0% | 9.2% |  | 
2 | CO[C@@]12[C@H](COC(N)=O)C3=C(C(=O)C(C)=C(N)C3=O)N1C[C@H]1[C@@H]2N1C (stereo partly shown) [NSC56410] |  |  |  |  |  | no or negligible inhibitory effect |  | 0.45 | activity in the lower micromolar range |  |  |  |  |  |  | ~39 fold | EC50 ([1]; Saccharomyces cerevisiae, 72 h): 45.1 ± 3.97 µM; EC50 ([2]; Saccharomyces cerevisiae, 72 h): 45.6 ± 7.61 µM; EC50 ([3]; Saccharomyces cerevisiae, 72 h): 1.48 ± 0.21 µM; EC50 ([4]; Saccharomyces cerevisiae, 72 h): 40.3 ± 9.42 µM; EC50 ([5]; Saccharomyces cerevisiae, 72 h): 37.6 ± 4.87 µM; EC50 [6]: 50.4 ± 13.2 µM; EC50 ([7]; Saccharomyces cerevisiae, 72 h): 50.7 ± 3.87 µM; IC50 ([8]; Haemonchus contortus, read-out: Anthelmintic IC50 by LDA (95% confidence interval)): 0.8 µM; fold higher potency than NSC133100 ([8]; LDA IC50): ~ 5 fold; fold higher potency than NSC177383 ([8]; LDA IC50): ~6 fold
3 | CO[C@H]1/C=C/O[C@@]2(C)Oc3c(C)c(O)c4c(O)c(cc(O)c4c3C2=O)NC(=O)/C(C)=C\C=C\[C@H](C)[C@H](O)[C@@H](C)[C@@H](O)[C@@H](C)[C@H](OC(C)=O)[C@@H]1C [NSC133100] | 60.1 ± 5.85 µM | 35.7 ± 3.67 µM | 18.7 ± 2.07 µM | 35.1 ± 5.01 µM | 36.6 ± 8.4 µM | no or negligible inhibitory effect | 23.4 ± 1.85 µM | 0.60 | activity in the lower micromolar range | 13.5% | -9.5% | -1.6% | -25.7% | -5.6% | -1.2% | ~ 7 fold | 
4 | COc1ccc(-c2c(C)c(C(=O)O)nc(-c3ccc4c(O)c(OC)c5c(c4n3)=NC(C)(C)N=5)c2N)c(O)c1OC [NSC62709] | 29.8 ± 7.61 µM | 25.6 ± 5.07 µM | 3.03 ± 0.26 µM | 26.9 ± 7.63 µM | 19.5 ± 2.56 µM | no or negligible inhibitory effect | 15.4 ± 2.13 µM |  |  |  |  |  |  |  |  |  | 
5 | O=c1c(O)cccc2cc(O)c(O)c(O)c12 [NSC35676, purpurogallin] |  |  |  |  |  | no or negligible inhibitory effect |  |  |  |  |  |  |  |  |  |  | EC50 ([1]; Saccharomyces cerevisiae, 72 h): 22.9 ± 5 µM; EC50 ([2]; Saccharomyces cerevisiae, 72 h): 12.9 ± 1.58 µM; EC50 ([3]; Saccharomyces cerevisiae, 72 h): 5.45 ± 0.95 µM; EC50 ([4]; Saccharomyces cerevisiae, 72 h): 17.6 ± 3.72 µM; EC50 ([5]; Saccharomyces cerevisiae, 72 h): 3.98 ± 1.08 µM; EC50 [6]: 6.02 ± 0.25 µM; EC50 ([7]; Saccharomyces cerevisiae, 72 h): 15.1 ± 0.7 µM
6 | COc1cc(C)c2c(c1C=O)Oc1c(c(C)c(O)c3c1C(O)OC3=O)OC2=O (stereo not shown) [NSC87511] | 58.2 ± 7 µM | 17.1 ± 1.15 µM | 2.08 ± 0.29 µM | 26.4 ± 3.45 µM | 57.9 ± 5.18 µM | no or negligible inhibitory effect | 25.9 ± 1.24 µM |  |  |  |  |  |  |  |  |  | 
7 | CO[C@@H]1/C=C/O[C@@]2(C)Oc3c(C)c(O)c4c(c3C2=O)C(=N[C@@H]2CC[C@@H](O)O[C@H]2C)C=C(NC(=O)/C(C)=C\C(=O)[C@@H]2C[C@@H]2[C@H](O)[C@@H](C)[C@@H](O)[C@@H](C)[C@H](OC(C)=O)[C@@H]1C)C4=O [NSC177383] | 11.8 ± 1.43 µM | 15.4 ± 1.91 µM | 6.11 ± 1.84 µM | 21.9 ± 7.31 µM | 19.8 ± 3.9 µM |  | 12.3 ± 1.11 µM | 1.23 | activity in the lower micromolar range | 3.9% | 19.1% | 14.7% | 16.5% | -42.2% | 46.1% | ~ 7 fold | 
